Assay results from US20220289708A1, “SUBSTITUTED N-PHENYL URACILS, SALTS THEREOF AND THEIR USE AS HERBICIDAL AGENTS” (Bayer Aktiengesellschaft, priority 2019, published 2022).

Experiments:
Assay type in all cases: in vivo
Matricaria inodora = experiment: Post-emergence herbicidal action; conditions: application rate 20 g/ha, rated visually after about 3 weeks vs untreated controls
Experimental: (§1) a. Post-Emergence Herbicidal Action and Crop Plant Compatibility Seeds of monocotyledonous and dicotyledonous weeds and crop plants were placed in sandy loam in plastic or wood-fiber pots, covered with soil and cultivated in a greenhouse under controlled growth conditions. 2 to 3 weeks after sowing, the test plants were treated at the one-leaf stage. The compounds of the invention, formulated in the form of wettable powders (WP) or as emulsion concentrates (EC), were then sprayed onto the green parts of the plants as aqueous suspension or emulsion with addition of 0.5% additive at a water application rate of 600 l/ha (converted). After the test plants had been kept in the greenhouse under optimum growth conditions for about 3 weeks, the activity of the preparations was rated visually in comparison to untreated controls. For example, 100% activity=the plants have died, 0% activity=like control plants. Tables A1 to A15 below show the effects of selected compounds of the general formula (I) according to Tables I.1 to I.36 on various harmful plants and at an application rate corresponding to 20 g/ha and less, which were obtained by the experimental procedure mentioned above.

Digitaria sanguinalis = experiment: Post-emergence herbicidal action; conditions: application rate 20 g/ha, rated visually after about 3 weeks vs untreated controls
Experimental: as §1

Avena fatua = experiment: Post-emergence herbicidal action; conditions: application rate 20 g/ha, rated visually after about 3 weeks vs untreated controls
Experimental: as §1

Abutilon theophrasti = experiment: Post-emergence herbicidal action; conditions: application rate 20 g/ha, rated visually after about 3 weeks vs untreated controls
Experimental: as §1

Veronica persica = experiment: Post-emergence herbicidal action; conditions: application rate 20 g/ha
Experimental: as §1

Viola tricolor = experiment: Post-emergence herbicidal action; conditions: application rate 20 g/ha
Experimental: as §1

Echinochloa crus-galli = experiment: Post-emergence herbicidal action; conditions: application rate 20 g/ha, rated visually after about 3 weeks vs untreated controls
Experimental: as §1

Pharbitis purpurea = experiment: Post-emergence herbicidal action; conditions: application rate 20 g/ha, rated visually after about 3 weeks vs untreated controls
Experimental: as §1

Amaranthus retroflexus = experiment: Post-emergence herbicidal action; conditions: application rate 20 g/ha, rated visually after about 3 weeks vs untreated controls
Experimental: as §1

Setaria viridis = experiment: Post-emergence herbicidal action; conditions: application rate 20 g/ha, rated visually after about 3 weeks vs untreated controls
Experimental: as §1

Alopecurus myosuroides = experiment: Post-emergence herbicidal action; conditions: application rate 20 g/ha, rated visually after about 3 weeks vs untreated controls
Experimental: as §1

Lolium rigidum = experiment: Post-emergence herbicidal action; conditions: application rate 20 g/ha, rated visually after about 3 weeks vs untreated controls
Experimental: as §1

Oryza sativa = experiment: Post-emergence crop plant compatibility
Experimental: a. Post-Emergence Herbicidal Action and Crop Plant Compatibility
as §1, with “Seeds” for “a. Post-Emergence Herbicidal Action and Crop Plant Compatibility Seeds”, “plants.” for “plants. Tables A1 to A15 below show the effects of selected compounds of the general formula (I) according to Tables I.1 to I.36 on various harmful plants and at an application rate corresponding to 20 g/ha and less, which were obtained by the experimental procedure mentioned above.”
Tables A16 to A19 below show the crop plant compatibilities of selected compounds of the general formula (I) according to Tables I.1 to I.36 at an application rate corresponding to 5 g/ha or 20 g/ha, which were obtained in experiments according to the experimental procedure mentioned above. Here, the observed effects on selected crop plants are stated in comparison to the untreated controls (values in %).

Polygonum convolvulus = experiment: Post-emergence herbicidal action; conditions: application rate 20 g/ha
Experimental: as §1

| Structure (SMILES) | Matricaria inodora (efficacy in %) (Matricaria inodora) [%] | Digitaria sanguinalis (efficacy in %) (Digitaria sanguinalis) [%] | Avena fatua (efficacy in %) (Avena fatua) [%] | Abutilon theophrasti (efficacy in %) (Abutilon theophrasti) [%] | Veronica persica (efficacy in %) (Veronica persica) [%] | Viola tricolor (efficacy in %) (Viola tricolor) [%] | Echinochloa crus-galli (efficacy in %) (Echinochloa crus-galli) [%] | Pharbitis purpurea (efficacy in %) (Pharbitis purpurea) [%] | Amaranthus retroflexus (efficacy in %) (Amaranthus retroflexus) [%] | Setaria viridis (efficacy in %) (Setaria viridis) [%] | Alopecurus myosuroides (efficacy in %) (Alopecurus myosuroides) [%] | Lolium rigidum (efficacy in %) (Lolium rigidum) [%] | Oryza sativa (efficacy in %) (Oryza sativa; application rate 5 g/ha) [%] | Polygonum convolvulus (efficacy in %) (Polygonum convolvulus) [%] | Oryza sativa (efficacy in %) (Oryza sativa; application rate 20 g/ha) [%] |
| --- | --- | --- | --- | --- | --- | --- | --- | --- | --- | --- | --- | --- | --- | --- | --- |
| Cn1c(C(F)(F)F)cc(=O)n(-c2cc(Sc3cccnc3OCC(=O)OC3COC3)c(Cl)cc2F)c1=O [I.1-115] | 100 | 100 | 80 | 100 | 100 | 100 | 100 | 100 | 100 | 100 | 100 | 80 | 20 | – | – |
| Cn1c(C(F)(F)F)cc(=O)n(-c2cc(Sc3cccnc3OCC(=O)OCC#N)c(Cl)cc2F)c1=O [I.1-176] | 100 | 100 | 90 | 100 | 100 | 100 | 100 | 100 | 100 | 100 | 100 | 80 | 20 | – | – |
| Cn1c(C(F)(F)F)cc(=O)n(-c2cc(Sc3cccnc3OCC(=O)OCc3ccccn3)c(Cl)cc2F)c1=O [I.1-286] | 100 | – | 80 | 100 | 100 | 100 | 100 | 100 | 100 | – | 100 | 80 | 0 | – | – |
| CCOC(COC(=O)COc1ncccc1Oc1cc(-n2c(=O)cc(C(F)(F)F)n(C)c2=O)c(F)cc1[N+](=O)[O-])OCC [I.14-422] | 90 | 100 | 90 | 100 | 100 | 100 | 100 | 100 | 100 | 100 | 100 | 80 | – | 100 | 20 |
| Cn1c(C(F)(F)F)cc(=O)n(-c2cc(Oc3cccnc3OCC(=O)OC3COC3)c(Br)cc2F)c1=O [I.16-115] | 100 | 100 | 80 | 100 | 100 | 100 | 100 | 100 | 100 | 100 | 100 | 100 | 20 | 100 | – |
| CCS(=O)(=O)NCCOC(=O)COc1ncccc1Oc1cc(-n2c(=O)cc(C(F)(F)F)n(C)c2=O)c(F)cc1Br [I.16-421] | 100 | 100 | 100 | 100 | 100 | 100 | 100 | 100 | 100 | 100 | 100 | 90 | 20 | 100 | – |
| CCOC(COC(=O)COc1ncccc1Oc1cc(-n2c(=O)cc(C(F)(F)F)n(C)c2=O)c(F)cc1Br)OCC [I.16-422] | 100 | 100 | 100 | 100 | 100 | 100 | 100 | 100 | 100 | 100 | 100 | 90 | 20 | 100 | – |
| COCCOC(=O)COc1ncc(F)cc1Sc1cc(-n2c(=O)cc(C(F)(F)F)n(C)c2=O)c(F)cc1Cl [I.31-1] | 100 | 100 | – | 100 | 100 | 100 | 100 | 100 | 100 | 100 | 90 | 80 | – | – | 20 |
| Cn1c(C(F)(F)F)cc(=O)n(-c2cc(Oc3cc(F)cnc3OCC(=O)OCC#N)c(Cl)cc2F)c1=O [I.36-176] | 90 | 100 | 80 | 100 | 90 | 100 | 100 | 100 | 100 | 100 | 100 | 80 | 20 | 100 | – |
